Measurements as given in the NIST ThermoML archive (doi:10.1021/je8009732).

Assays:
[1] = xn = mol fraction of the nth substance listed; conditions: 298.15 K, 101.3 kPa, Liquid; for mass density: Vibrating tube method
[2] = refractive index (Na D-line) (dimensionless); xn = mol fraction of the nth substance listed; conditions: 298.15 K, 101.3 kPa, Liquid, Standard Abbe refractometry
[3] = 298.15 K, 101.3 kPa, Liquid; for mass density: Vibrating tube method
[4] = refractive index (Na D-line) (dimensionless); conditions: 298.15 K; 101.33 kPa; Liquid; Standard Abbe refractometry

CCOS(=O)(=O)[O-].CC[n+]1cccc(C)c1 [1-ethyl-3-methylpyridinium ethylsulfate] + CCCO
Conditions	mass density, [1] [kg/m3]	refractive index, [2]	viscosity, [1] [mPa·s]
x2 = 0	1222.2	1.50666	161.4
x2 = 0.0863	1208.44	1.50223	126.4
x2 = 0.1279	1201.22	1.5002	112.4
x2 = 0.2201	1183.56	1.49524	85.83
x2 = 0.3243	1160.24	1.48866	62.26
x2 = 0.4177	1135.68	1.48167	48.86
x2 = 0.5126	1106.18	1.47321	34.16
x2 = 0.6093	1069.97	1.4627	24.62
x2 = 0.7176	1019.9	1.44818	16.27
x2 = 0.824	956.78	1.4297	9.9
x2 = 0.8834	913.04	1.41684	7.027
x2 = 0.9658	837.78	1.39459	3.411

CCOS(=O)(=O)[O-].CC[n+]1cccc(C)c1 [1-ethyl-3-methylpyridinium ethylsulfate]
Conditions	mass density [kg/m3]	refractive index	viscosity [mPa·s]
[3]	1222.2	–	161.4
[4]	–	1.50666	–

CCCO [propan-1-ol]
Conditions	mass density [kg/m3]	refractive index	viscosity [mPa·s]
[3]	799.5	–	2.017
[4]	–	1.3837	–

CCCO [propan-1-ol] + CCOS(=O)(=O)[O-].CC[n+]1cccc(C)c1
x1 = 1
Conditions	mass density [kg/m3]	refractive index	viscosity [mPa·s]
[1]	799.5	–	2.017
[2]	–	1.3837	–
